{"source": "patent US20240158418A1", "about": "(C4 Therapeutics, Inc., priority 2021, published 2024)", "key": {"[1]": {"molecular_target": "T1, G1 to S Phase Transition 1 (GSPT1) (Homo sapiens, UniProt P15170)", "T1 construct": "Endogenous expression of GSPT1 in 293T cells was determined by addition of N-terminal HiBiT tag; host or cells: 293T (CRISPR-Cas9 HiBiT knock-in)", "assay": "GSPT1 degradation, HiBiT-tagged GSPT1 in 293T cells", "format": "cell-based", "conditions": "6 hours, up to 10 WV", "description": "Endogenous expression of GSPT1 in 293T cells was determined by addition of N-terminal HiBiT tag to the 293T cell line (ATCC CRL-3216) using CRISPR-Cas9. Briefly, test compound was added to 384-well plates at a top concentration of 10 μM with 11 points, half log titration in duplicates. 293T cells expressing HiBiT-tagged GSPT1 were seeded into the 384-well plates in DMEM medium containing 10% FBS at a cell density of 6000 cells per well. Cells treated in the absence of the test compound were the negative control and wells containing media only were the positive control. Following compound treatment, cells were incubated at 37° C. with 5% CO2 for 6 hr. HiBiT signal was determined using Nano-Glo™ HiBiT Lytic Assay System (Promega, N3050) and luminescence was acquired on EnVision™ Multilabel Reader (PerkinElmer, Santa Clara, CA, USA). % GSPT1 remaining was determined by normalizing the signal with positive and negative controls on the same microtiter plate. Data in FIG. 8 are expressed as the mean±SD. Curve fit and IC50 determination was performed by 4 parametric regression analysis."}, "[2]": {"molecular_target": "T2, Sal-like protein 4 (SALL4) (Homo sapiens, UniProt Q9UJQ4)", "T2 construct": "Endogenous expression of SALL4 in KELLY cells was determined by addition of C-terminal HiBiT tag; host or cells: KELLY (CRISPR-Cas9 HiBiT knock-in)", "assay": "SALL4 degradation, HiBiT-tagged SALL4 in KELLY cells", "format": "cell-based", "conditions": "6 hours, up to 10 μM", "description": "Specific studies were carried out to assess the ability of Compound 1 to degrade Sal-like protein 4 (SALL4), a protein implicated in the teratogenicity induced by the IMiD®s class of IKZF1/IKZF3 degraders including lenalidomide (Matyskiela et al., Crystal structure of the SALL4-pomalidomide-cereblon-DDB1 complex, Nature Structural and Molecular Biology, (2020) 27, 319-322). Endogenous expression of SALL4 in KELLY cells was determined by addition of C-terminal HiBiT tag to the KELLY cell line (DSMZ ACC355) using CRISPR-Cas9. Briefly, test compound was added to 384-well plates at a top concentration of 1 μM with 11 points, half log titration in duplicates. KELLY cells expressing HiBiT-tagged SALL4 were seeded into the 384-well plates in RPMI medium containing 10% FBS and 2 mM pyruvate at a cell density of 6000 cells per well. Cells treated in the absence of the test compound were the negative control and wells containing media only were the positive control. Following compound treatment, cells were incubated at 37° C. with 5% CO2 for 6 hr. HiBiT signal was determined using Nano-Glo™ HiBiT Lytic Assay System (Promega, N3050) and luminescence was acquired on EnVision™ Multilabel Reader (PerkinElmer, Santa Clara, CA, USA). % SALL4 remaining was determined by normalizing the signal with positive and negative controls on the same microtiter plate. Data in FIG. 7 are expressed as the mean±SD. […]"}, "[3]": {"system": "intracranial NCI-H1975-luciferase expressing tumors", "assay": "NCI-H1975-luc intracranial tumor model (intracarotid artery injection): BLI, body weight, survival", "format": "in vivo, female BALB/c nude mice", "conditions": "intracranial model with intracarotid implantation, oral dosing", "description": "Female BALB/c nude mice were inoculated by intracarotid injection with NCI-H1975-luc cells (1×10^5 in 100 μL PBS) for tumor development. Tumor growth was monitored using imaging analysis. Tumor-bearing mice were weighed and injected intraperitoneally with luciferin at a dose of 150 mg/kg and anesthetized with a mixture gas of oxygen and isoflurane. 10 minutes post luciferin injection, mice were imaged using IVIS Lumina III machine and total bioluminescence signal (BLI, photons/s) was measured in a region of interest (ROI). BLI from ROI were quantified and used as an indicator of tumor burden. Twenty days post tumor cell inoculation mice were randomized into groups of 6 with a mean BLI of 1.08×10^6 photons/s. Compound 1 was dosed orally (PO) twice a day at 50 mg/kg and was formulated in 20% PEG400+80% (25% SBECD, “sulfobutylether-β-cyclodextrin”) in double distilled H2Om which was also used as the vehicle control. Body weight and MTV were measured on a 2× weekly schedule. Survival data was also measured and is represented as median survival time±SEM."}, "[4]": {"molecular_target": "T3, mutant EGFR-L858R-T790M (Homo sapiens, UniProt P00533, L858R/T790M)", "T3 construct": "female BALB/c nude mice bearing NCI-H1975 NSCLC tumors; from tissue; host or cells: NCI-H1975 subcutaneous xenograft tumours from female BALB/c nude mice", "assay": "Mutant EGFR protein in NCI-H1975 tumors after single oral dose (western blot)", "format": "in vivo, female BALB/c nude mice", "description": "Compound 1 was administered as a single oral (PO) dose at 10, 25, or 50 mg/kg to female BALB/c nude mice with NCI-H1975 tumors. At 4h, 6h or 12h tumors were harvested and the protein expression of mutant EGFR-L858R and phospho-EGFR was measured by western blot.\nA xenograft study was conducted in female BALB/c nude mice bearing NCI-H1975 NSCLC tumors. Female nude mice were inoculated subcutaneously in the right flank with 5×10^6 tumors cells in 0.1 mL of PBS. Tumor volume was measured twice weekly in two dimensions using calipers, and volume (mm^3) was calculated using the formula: V=0.5 a×b2 where a and b are the long and short diameters of the tumor in mm, respectively. […]\nAll agents were administered to mice bearing NCI-H1975 tumors on day 0 as a single oral (PO) dose. […] Protein concentration was quantified using a Pierce™ BCA Protein Assay Kit, samples were reduced, and equal protein amounts were then loaded onto a western blot gel for analysis. Tumors were analyzed for EGFR Receptor L858R Mutant Specific (CST, 3197) or Phospho-EGFR Receptor Tyr1068 (CST, 2234) expression. The intensity of individual bands was measured for data analysis using Image Studio software. Protein expression was quantitated in relation to the reference protein, alpha-tubulin, to control for total protein concentration. […]"}}}
{"smiles": "O=C1CC[C@H](Nc2ccc(N3CCC(O)(CC(=O)N4CC5(C4)CN(c4ccc(-c6cc(F)c7c(c6)C(=O)N(C(C(=O)Nc6nccs6)c6ncn8c6CCC8)C7)cc4)C5)CC3)c(F)c2)C(=O)N1", "note": "(stereo partly drawn) [Compound 1, 2-(6,7-dihydro-5H-pyrrolo[1,2-c]imidazol-1-yl)-2-[6-[4-[2-[2-[1-[4-[[(3S)-2,6-dioxo-3-piperidyl]amino]-2-fluoro-phenyl]-4-hydroxy-4-piperidyl]acetyl]-2,6-diazaspiro[3.3]heptan-6-yl]phenyl]-4-fluoro-1-oxo-isoindolin-2-yl]-N-thiazol-2-yl-acetamide]", "values": [{"measurement": "GSPT1 degradation (% GSPT1 remaining)", "setting": "[1]", "result": "no significant effect"}, {"measurement": "SALL4 degradation (% SALL4 remaining)", "setting": "[2]", "result": "no effect"}, {"measurement": "efficacy on NCI-H1975-luc BLI (tumor burden)", "setting": "[3]", "result": "tumor regression"}, {"measurement": "mutant EGFR degraded in vivo", "setting": "[4]; after a single oral dose, NCI-H1975 tumors", "result": "up to 85%"}, {"measurement": "mutant EGFR-L858R protein expression in tumors", "setting": "[4]; single PO dose 10, 25 or 50 mg/kg, 4, 6 and 12 hours", "result": "potent EGFR degradation"}]}
